From ChEMBL document CHEMBL1201862, “PubChem BioAssay data set” (2004)
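Dose response: 5 concentrations. Exposure: 48 h. Format: 96-well plates. Endpoint: linear interpolation; highest concentration if not reached. GI50 is the concentration that inhibits growth by half.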 Active and inactive are the calls of the source. No stated cut-off is given here; in the data, active = GI50 up to about 1.1 µM and inactive = higher.

Columns and labels:
Assay in all cases: NCI tumour cell line growth inhibition, 48 h
KM12 = system: KM12
OVCAR-5 = system: OVCAR-5
CCRF-CEM = system: CCRF-CEM
NCI-H522 = system: NCI-H522
SK-MEL-2 = system: SK-MEL-2
DLD-1 = system: DLD-1
K562 = system: K562
IGROV-1 = system: IGROV-1
SK-MEL-28 = system: SK-MEL-28
TK-10 = system: TK-10
SN12C = system: SN12C
CAKI-1 = system: CAKI-1
SF-295 = system: SF-295
COLO 205 = system: COLO 205
HT-29 = system: HT-29
LOX IMVI = system: LOX IMVI
UACC-257 = system: UACC-257
T47D = system: T47D
MDA-MB-231 = system: MDA-MB-231
SR = system: SR

| SMILES | GI50 (KM12) | GI50 (OVCAR-5) | GI50 (CCRF-CEM) | GI50 (NCI-H522) | GI50 (SK-MEL-2) | GI50 (DLD-1) | GI50 (K562) | GI50 (IGROV-1) | GI50 (SK-MEL-28) | GI50 (TK-10) | GI50 (SN12C) | GI50 (CAKI-1) | GI50 (SF-295) | GI50 (COLO 205) | GI50 (HT-29) | GI50 (LOX IMVI) | GI50 (UACC-257) | GI50 (T47D) | GI50 (MDA-MB-231) | GI50 (SR) |
| --- | --- | --- | --- | --- | --- | --- | --- | --- | --- | --- | --- | --- | --- | --- | --- | --- | --- | --- | --- | --- |
| CS/C(=N/C(=O)c1ccccc1)SCCS/C(=N\C(=O)c1ccccc1)SC | > 100 µM (inactive) | > 100 µM (inactive) | > 100 µM (inactive) | 69.2 µM (inactive) | > 100 µM (inactive) | > 100 µM (inactive) | > 100 µM (inactive) | > 100 µM (inactive) | > 100 µM (inactive) | > 100 µM (inactive) | > 100 µM (inactive) | > 100 µM (inactive) | > 100 µM (inactive) | > 100 µM (inactive) | > 100 µM (inactive) | > 100 µM (inactive) | > 100 µM (inactive) |  |  |  |
| COc1cccc2c1CCc1cc3c(N)nc(N)nc3nc1-2 | 5.47 µM (inactive) | 6.92 µM (inactive) | 2.55 µM (inactive) | 5.18 µM (inactive) | 13.3 µM (inactive) |  | 2.23 µM (inactive) | 5.86 µM (inactive) | 2.78 µM (inactive) | 10.9 µM (inactive) | 6.43 µM (inactive) | 5.45 µM (inactive) | 4.42 µM (inactive) | 4.02 µM (inactive) | 2.41 µM (inactive) | 0.34 µM (active) | 5.73 µM (inactive) | 7.94 µM (inactive) | 3.09 µM (inactive) | 3.41 µM (inactive) |
| Cc1cc2nc3c(C)c4ccccc4c(C)n3c2cc1C | 3.34 µM (inactive) | 2.48 µM (inactive) | 3.84 µM (inactive) | 2.51 µM (inactive) | 3.66 µM (inactive) |  | 5.21 µM (inactive) | 2.05 µM (inactive) | 3.27 µM (inactive) | 5.27 µM (inactive) | 2.07 µM (inactive) | 2.94 µM (inactive) | 2.59 µM (inactive) | 2.15 µM (inactive) | 2.2 µM (inactive) | 0.857 µM (active) | 3.36 µM (inactive) | > 10 µM (inactive) | 1.62 µM (inactive) | 2.96 µM (inactive) |
| Cn1cc(-c2cnc(-c3cn(C)c4ccccc34)cn2)c2ccccc21 | 0.0471 µM (active) | 14 µM (inactive) | 0.448 µM (active) | 1.51 µM (inactive) | 5.87 µM (inactive) |  | 3.8 µM (inactive) | 3.8 µM (inactive) | 6.37 µM (inactive) | 18.6 µM (inactive) | 8.85 µM (inactive) | 6.67 µM (inactive) | 2.44 µM (inactive) | 3.26 µM (inactive) | 4.78 µM (inactive) | 5.2 µM (inactive) | 16 µM (inactive) | 44.8 µM (inactive) | 15 µM (inactive) | 3.09 µM (inactive) |
| Cc1cc(NC[C@H](O)[C@H](O)[C@H](O)CO)c(Sc2cc(=O)[nH]c(=O)[nH]2)cc1C | > 62.5 µM (inactive) | > 62.5 µM (inactive) | > 62.5 µM (inactive) | > 62.5 µM (inactive) | > 62.5 µM (inactive) |  | > 62.5 µM (inactive) | > 62.5 µM (inactive) | > 62.5 µM (inactive) | > 62.5 µM (inactive) | > 62.5 µM (inactive) | > 62.5 µM (inactive) | > 62.5 µM (inactive) | > 62.5 µM (inactive) | > 62.5 µM (inactive) | > 62.5 µM (inactive) | > 62.5 µM (inactive) | > 62.5 µM (inactive) | > 62.5 µM (inactive) | > 62.5 µM (inactive) |
| Cc1cc(NS(=O)(=O)c2ccc(Nc3c4ccccc4nc4c(C(=O)NC(CO)(CO)CO)cccc34)cc2)no1 | 25.2 µM (inactive) | 62.8 µM (inactive) | 19.4 µM (inactive) | 15.8 µM (inactive) | 19.4 µM (inactive) |  | 33.3 µM (inactive) | 29 µM (inactive) | 52.8 µM (inactive) | 29.2 µM (inactive) | 23.1 µM (inactive) | 42.2 µM (inactive) | 41 µM (inactive) | 42.4 µM (inactive) | 38.7 µM (inactive) | 18.2 µM (inactive) | 72.1 µM (inactive) | 26.5 µM (inactive) | 37.9 µM (inactive) | 26.3 µM (inactive) |
| Cc1ccc(Sc2cc([N+](=O)[O-])cc(Sc3ccc(C)cc3)c2Sc2ccc(C)cc2)cc1 | > 100 µM (inactive) | > 100 µM (inactive) | 27.2 µM (inactive) |  | > 100 µM (inactive) | > 100 µM (inactive) | 48.8 µM (inactive) | > 100 µM (inactive) |  | > 100 µM (inactive) | > 100 µM (inactive) | > 100 µM (inactive) | > 100 µM (inactive) | > 100 µM (inactive) | > 100 µM (inactive) | > 100 µM (inactive) | > 100 µM (inactive) |  |  |  |
| CC(C)c1cccc(C(C)C)c1N1C(=O)C(=O)C(c2nc3ccccc3o2)C(=O)C1=O | > 100 µM (inactive) | > 100 µM (inactive) | 8.95 µM (inactive) | 19.5 µM (inactive) | > 100 µM (inactive) | 31.6 µM (inactive) | 28.2 µM (inactive) | > 100 µM (inactive) | 32.7 µM (inactive) | > 100 µM (inactive) | > 100 µM (inactive) | 40.5 µM (inactive) | > 100 µM (inactive) | 32.8 µM (inactive) | 30.3 µM (inactive) | > 100 µM (inactive) | > 100 µM (inactive) |  |  |  |
| CC[C@]1(c2ccc3c(c2)OCO3)C=[N+]([O-])O[C@H](OC2CCCC2(c2ccccc2)c2ccccc2)[C@@H]1OC(C)=O (stereo not given in full) | 1.77 µM (inactive) | 3.83 µM (inactive) | 2.86 µM (inactive) | 1.77 µM (inactive) | 2.38 µM (inactive) |  | 2.36 µM (inactive) | 1.94 µM (inactive) | 2.12 µM (inactive) | 3.27 µM (inactive) | 3.15 µM (inactive) | 3.42 µM (inactive) | 1.32 µM (inactive) | 2.23 µM (inactive) | 1.68 µM (inactive) | 2.09 µM (inactive) | 2.58 µM (inactive) | 2.09 µM (inactive) | 4.01 µM (inactive) | 2.22 µM (inactive) |
| O=C(CCC(=O)Nc1ccc(Cl)c(Cl)c1)CC(=O)c1ccc(Br)cc1 | > 100 µM (inactive) | > 100 µM (inactive) | > 100 µM (inactive) | > 100 µM (inactive) | > 100 µM (inactive) | > 100 µM (inactive) | 47.8 µM (inactive) | > 100 µM (inactive) | > 100 µM (inactive) | > 100 µM (inactive) | > 100 µM (inactive) | > 100 µM (inactive) |  | > 100 µM (inactive) | > 100 µM (inactive) | > 100 µM (inactive) | 49.4 µM (inactive) |  |  |  |
| CC(=O)NC(CCCCNC(=O)OCc1ccccc1)C(=O)NCc1ccccc1 (stereo not given) | > 100 µM (inactive) | > 100 µM (inactive) | > 100 µM (inactive) | > 100 µM (inactive) | > 100 µM (inactive) | > 100 µM (inactive) | > 100 µM (inactive) | > 100 µM (inactive) | > 100 µM (inactive) | > 100 µM (inactive) | > 100 µM (inactive) | > 100 µM (inactive) | > 100 µM (inactive) | > 100 µM (inactive) | > 100 µM (inactive) | > 100 µM (inactive) | > 100 µM (inactive) |  |  |  |
| Cc1cc2c(c(/C=N/c3ccc([N+](=O)[O-])cc3)c1)OC1(C=C2)Oc2ccccc2C(=O)N1C (stereo not given) | 20 µM (inactive) | 28.6 µM (inactive) | 12.2 µM (inactive) | 21.5 µM (inactive) | 24.8 µM (inactive) |  | 19.2 µM (inactive) | 18.8 µM (inactive) | 19.9 µM (inactive) | 24.5 µM (inactive) | 20.5 µM (inactive) | 13.8 µM (inactive) | 24.4 µM (inactive) | 20 µM (inactive) | 18.2 µM (inactive) | 12.8 µM (inactive) | 21.2 µM (inactive) | 7.89 µM (inactive) | 16.9 µM (inactive) | 12.3 µM (inactive) |
| Nc1ccc(C(=O)NN2C(=O)C(Cl)C2c2ccccc2)cc1 (stereo not given) | > 100 µM (inactive) | > 100 µM (inactive) | > 100 µM (inactive) | > 100 µM (inactive) | > 100 µM (inactive) | > 100 µM (inactive) | > 100 µM (inactive) | > 100 µM (inactive) | > 100 µM (inactive) | > 100 µM (inactive) | > 100 µM (inactive) | > 100 µM (inactive) | > 100 µM (inactive) | > 100 µM (inactive) | > 100 µM (inactive) | > 100 µM (inactive) | > 100 µM (inactive) |  |  |  |
| CCCCCCNC(=O)CCC(NC(=O)c1ccc(N(C)Cc2cnc3nc(N)nc(N)c3n2)cc1)C(=O)NCCCCCC (stereo not given) | > 100 µM (inactive) | > 100 µM (inactive) | > 100 µM (inactive) | 63 µM (inactive) | > 100 µM (inactive) |  | 2.52 µM (inactive) | 16.2 µM (inactive) | > 100 µM (inactive) | > 100 µM (inactive) | > 100 µM (inactive) | > 100 µM (inactive) | 16.7 µM (inactive) | > 100 µM (inactive) | 88.7 µM (inactive) | 12.4 µM (inactive) | 37.1 µM (inactive) | > 100 µM (inactive) | 34.8 µM (inactive) | > 100 µM (inactive) |
| [C-]#[N+]C(=C\c1ccc(O)cc1)/C(=C/c1ccc(O)cc1)[N+]#[C-] [XANTOCILLIN] | 2.16 µM (inactive) | 4.94 µM (inactive) | 0.76 µM (active) | 3.14 µM (inactive) | 2.07 µM (inactive) |  | 0.465 µM (active) | 2.13 µM (inactive) | 2.61 µM (inactive) | 3.01 µM (inactive) | 2.06 µM (inactive) | 2.25 µM (inactive) | 4.02 µM (inactive) | 20.1 µM (inactive) | 10.9 µM (inactive) | 1.64 µM (inactive) | 2.53 µM (inactive) | 3.34 µM (inactive) | 2.74 µM (inactive) | 1.67 µM (inactive) |
